Earlier results, collected in publication PMC6311893, “Computational prediction of plasma protein binding of cyclic peptides from small molecule experimental data using sparse modeling techniques” (BMC Bioinformatics, 2018).

System: plasma protein
Details: fraction bound to plasma protein; small molecule dataset, sheet 1-SM (Set Dte = test, Dtr = training); ref Ingle et al.; cited from earlier work

| Compound | PPB (fb) |
| --- | --- |
| CC(C)(C)NCC(O)COc1cccc2c1CCC(=O)N2 (stereo not drawn) [carteolol] | 0.15 |
| CCCCCCC(N)C(=O)NC1C(=O)N2C1SC(C)(C)C2C(=O)O (stereo not drawn) [penicillin13] | 0.66 |
| CCC(Oc1ccccc1)C(=O)NC1C(=O)N2C1SC(C)(C)C2C(=O)O (stereo not drawn) [penicillin50] | 0.86 |
| Cc1nnc(SCC2=C(C(=O)O)N3C(=O)[C@@H](NC(=O)Cn4cnnn4)[C@H]3SC2)s1 [Cefazolin] | 0.83 |
| O=C(O)c1cn(-c2ccc(F)cc2)c2cc(N3CCNCC3)c(F)cc2c1=O [2c(p-F)] | 0.31 |
| Cn1cc[nH]c1=S [thiamazole] | 0 |
| CCc1oc2ccccc2c1C(=O)c1cc(Br)c(O)c(Br)c1 [benzbromarone] | 0.99 |
| Cc1cnc(C(=O)O)c[n+]1[O-] [acipimox] | 0.02 |
| O=C(O)c1cc(=O)c2c(OCC(O)COc3cccc4oc(C(=O)O)cc(=O)c34)cccc2o1 [cromolyn] | 0.68 |
| Cc1ccc(-c2cc(C(F)(F)F)nn2-c2ccc(S(N)(=O)=O)cc2)cc1 [celecoxib] | 0.97 |
| CC(NC(C)(C)C)C(=O)c1cccc(Cl)c1 (stereo not drawn) [bupropion] | 0.75 |

Same assay, conditions: fraction bound to plasma protein; small molecule dataset, sheet 1-SM, Set Dtr; ref Ingle et al.; cited from earlier work

| Compound | PPB (fb) |
| --- | --- |
| CN1C(=O)OC(C)(C)C1=O [trimethadione] | 0 |
| CNC(=C[N+](=O)[O-])NCCSCc1csc(CN(C)C)n1 [Nizatidine] | 0.32 |
| C[C@H](N[C@@H](CCc1ccccc1)C(=O)O)C(=O)N1[C@H](C(=O)O)C[C@H]2CCCC[C@@H]21 [trandolaprilat] | 0.94 |
| COc1ccc(C(=O)Nc2ccccc2CCC2CCCCN2C)cc1 (stereo not drawn) [Encainide] | 0.72 |
| CC(=O)OCC1=C(C(=O)O)N2C(=O)[C@@H](NC(=O)CSc3ccncc3)[C@H]2SC1 [Cephapirin] | 0.53 |
| O=c1c(O)c(-c2ccc(O)c(O)c2)oc2cc(O)cc(O)c12 [Quercetin] | 0.99 |
| CSc1ccc(C(=O)c2[nH]c(=O)[nH]c2C)cc1 [Fenoximone] | 0.74 |
| CC(C)[C@H](N)C(=O)OCCOCn1cnc2c(=O)[nH]c(N)nc21 [valacyclovir] | 0.18 |
| COc1ccc2c(c1)c(CC(=O)O)c(C)n2C(=O)c1ccc(Cl)cc1 [Indomethacin] | 0.97 |

Same assay, conditions: fraction bound to plasma protein; small molecule dataset, sheet 1-SM; ref Ingle et al.; cited from earlier work

| Compound | PPB (fb) |
| --- | --- |
| O=C1Cc2cc(CCN3CCN(c4nsc5ccccc45)CC3)c(Cl)cc2N1 [Ziprasidone] | 0.99 |
| CCCCC1C(=O)N(c2ccccc2)N(c2ccccc2)C1=O [phenylbutazone] | 0.98 |
| CC(C)(C)NC(=O)[C@@H]1C[C@@H]2CCCC[C@@H]2CN1C[C@@H](O)[C@H](Cc1ccccc1)NC(=O)[C@H](CC(N)=O)NC(=O)c1ccc2ccccc2n1 [Saquinavir] | 0.98 |
| CO[C@H]1/C=C/O[C@@]2(C)Oc3c(C)c(O)c4c(O)c(c(/C=N/N5CCN(C)CC5)c(O)c4c3C2=O)NC(=O)/C(C)=C\C=C\[C@H](C)[C@H](O)[C@@H](C)[C@@H](O)[C@@H](C)[C@H](OC(C)=O)[C@@H]1C [Rifampin] | 0.77 |
| CO/N=C1\CN(c2nc3c(cc2F)c(=O)c(C(=O)O)cn3C2CC2)CC1CN (stereo not drawn) [Gemifloxacin] | 0.64 |
| CC1=C(/C=C/C(C)=C/C=C/C(C)=C\C(=O)O)C(C)(C)CCC1 [isotretinoin] | 0.95 |
| CC1(C)O[C@@H]2C[C@H]3[C@@H]4CCC5=CC(=O)C=C[C@]5(C)[C@@]4(F)[C@@H](O)C[C@]3(C)[C@]2(C(=O)CO)O1 [Triamcinolone Acetonide] | 0.8 |

Same assay, conditions: plasma; cited from earlier work

| Compound | PPB (fb) |
| --- | --- |
| Atovaquone | 1 |
| Cc1ncc2n1-c1ccc(Cl)cc1C(c1ccccc1F)=NC2 [Midazolam] | 0.97 |
| phenprocoumon | 0.99 |
| CC(=O)C1(O)CCC2C3CCC4=CC(=O)CCC4(C)C3CCC21C (stereo not drawn) [17-hydroxyprogesterone] | 0.85 |
| COc1ccc(C(CN(C)C)C2(O)CCCCC2)cc1 (stereo not drawn) [Venlafaxine] | 0.27 |
| N[C@@H](Cc1ccc(N(CCCl)CCCl)cc1)C(=O)O [Melphalan] | 0.88 |
